Laboratory results as given in patent US8165517B2, “Methods for identifying inhibitors of vascular injury” (The Trustees of the University of Pennsylvania, priority 2005, dated 2012).

What was measured:
[1] = tested on: mouse aortic smooth muscle cell (mASMC); experiment: mASMC proliferation by MTT assay; assay type: cell-based; conditions: PGD2 1 and 5 μM, 24 hr, confluent, quiescent SMC
Description: FIG. 6 depicts the effect of PGD2 on mASMC proliferation. Confluent, quiescent SMC were treated with varies concentrations of PGD2. Cell proliferation was determined by MTT assay at 24 hr. Values are mean±S.E.M. (*: P<0.005, by One-way ANOVA and t test, n=6).
The effect of PGD2 on mASMC proliferation was determined by MTT assay.

[2] = tested on: MAP Kinase (MAPK), phosphorylated ERK1/2, in mASMC; experiment: MAPK activation in mASMC by Western analysis of SMC lysate; assay type: cell-based, mouse
Description: FIG. 7 depicts the effect of PGD2 on MAPK activation in mASMC. Confluent, quiescent SMC were treated with 1 μM PGD2 for varies timepoints. Cells were lysed and the lysate was analyzed for phosphorylated ERK1/2 (upper panel) and MARK (lower panel) by Western analysis, using antibodies to phosphotyrosine −ERK1/2 and ERK1/2, respectively.
The effect of PGD2 on activation of MAP Kinase (MAPK) was tested by Western analysis of SMC lysate.

With `CCCCC[C@H](O)/C=C/[C@H]1C(=O)C[C@H](O)[C@@H]1C/C=C\CCCC(=O)O` [PGD2, Prostaglandin D2] the “effect on mASMC proliferation” value [1] was “significantly promote mASMC proliferation”, the “level of phosphorylated-MAPK1/2 over time” value ([2]; 1 μM PGD2, after 15 min) was “returned to control levels” and the “activation of MAP Kinase (phosphorylated-MAPK1/2, 44 and 42 kDa)” value ([2]; 1 μM PGD2, as early as 10 min) was “induction of a phosphorylated-MAPK1/2”.
